ChEMBL document CHEMBL4308841, “Synthesis, in vitro antiproliferative activity, and kinase inhibitory effects of pyrazole-containing diarylureas and diarylamides” (Eur J Med Chem, 2018)

Key:
U-251 = test: Growth inhibition of human U251 cells incubated for 48 hrs by sulforhodamine B assay; assay type: functional, cell-based; details: U-251, 48 h
CAKI-1 [1] = test: Growth inhibition of human Caki1 cells assessed as cell growth at 1 uM incubated for 48 hrs by sulforhodamine B assay relative to control; assay type: functional; details: CAKI-1, 48 h, read-out: Activity
IGROV-1 [2] = test: Growth inhibition of human IGROV1 cells incubated for 48 hrs by sulforhodamine B assay; assay type: functional, cell-based; details: IGROV-1, 48 h
OVCAR-8 = test: Growth inhibition of human OVCAR8 cells assessed as cell growth at 100 uM incubated for 48 hrs by sulforhodamine B assay relative to control; assay type: functional; details: OVCAR-8, 48 h, read-out: Activity
LOX IMVI [3] = test: Growth inhibition of human LOXIMVI cells assessed as cell growth at 1 uM incubated for 48 hrs by sulforhodamine B assay relative to control; assay type: functional; details: read-out: Activity
SR = test: Growth inhibition of human SR cells incubated for 48 hrs by sulforhodamine B assay; assay type: functional, cell-based
786-0 = test: Growth inhibition of human 786-0 cells assessed as cell growth at 0.01 uM incubated for 48 hrs by sulforhodamine B assay relative to control; assay type: functional; details: 786-0, 48 h, read-out: Activity
CAKI-1 [4] = test: Growth inhibition of human Caki1 cells assessed as cell growth at 100 uM incubated for 48 hrs by sulforhodamine B assay relative to control; assay type: functional; details: CAKI-1, 48 h, read-out: Activity
NCI-H322M [5] = test: Growth inhibition of human NCI-H322M cells incubated for 48 hrs by sulforhodamine B assay; assay type: functional, cell-based
SN12C = test: Growth inhibition of human SN12C cells assessed as cell growth at 0.1 uM incubated for 48 hrs by sulforhodamine B assay relative to control; assay type: functional; details: read-out: Activity
SK-MEL-5 = test: Growth inhibition of human SK-MEL-5 cells assessed as cell growth at 1 uM incubated for 48 hrs by sulforhodamine B assay relative to control; assay type: functional; details: SK-MEL-5, 48 h, read-out: Activity
NCI-H322M [6] = test: Growth inhibition of human NCI-H322M cells assessed as cell growth at 0.01 uM incubated for 48 hrs by sulforhodamine B assay relative to control; assay type: functional; details: read-out: Activity
SW-620 = test: Growth inhibition of human SW620 cells assessed as cell growth at 0.01 uM incubated for 48 hrs by sulforhodamine B assay relative to control; assay type: functional; details: SW-620, 48 h, read-out: Activity
A498 = test: Growth inhibition of human A498 cells assessed as cell growth at 1 uM incubated for 48 hrs by sulforhodamine B assay relative to control; assay type: functional; details: A498, 48 h, read-out: Activity
SNB-75 = test: Growth inhibition of human SNB75 cells incubated for 48 hrs by sulforhodamine B assay; assay type: functional, cell-based; details: SNB-75, 48 h
Hs-578T = test: Growth inhibition of human Hs578T cells assessed as cell growth at 0.1 uM incubated for 48 hrs by sulforhodamine B assay relative to control; assay type: functional; details: read-out: Activity
MDA-MB-435 = test: Growth inhibition of human MDA-MB-435 cells assessed as cell growth at 0.1 uM incubated for 48 hrs by sulforhodamine B assay relative to control; assay type: functional; details: MDA-MB-435, 48 h, read-out: Activity
LOX IMVI [7] = test: Growth inhibition of human LOXIMVI cells incubated for 48 hrs by sulforhodamine B assay; assay type: functional
MOLT-4 = test: Growth inhibition of human MOLT4 cells assessed as cell growth at 1 uM incubated for 48 hrs by sulforhodamine B assay relative to control; assay type: functional; details: MOLT-4, 48 h, read-out: Activity
OVCAR-5 = test: Growth inhibition of human OVCAR5 cells assessed as cell growth at 0.01 uM incubated for 48 hrs by sulforhodamine B assay relative to control; assay type: functional; details: OVCAR-5, 48 h, read-out: Activity
Malme-3M = test: Growth inhibition of human MALME-3M cells incubated for 48 hrs by sulforhodamine B assay; assay type: functional, cell-based
HT-29 = test: Growth inhibition of human HT-29 cells assessed as cell growth at 1 uM incubated for 48 hrs by sulforhodamine B assay relative to control; assay type: functional; details: HT-29, 48 h, read-out: Activity
M14 = test: Growth inhibition of human M14 cells assessed as cell growth at 100 uM incubated for 48 hrs by sulforhodamine B assay relative to control; assay type: functional; details: M14, 48 h, read-out: Activity
T47D = test: Growth inhibition of human T47D cells assessed as cell growth at 0.01 uM incubated for 48 hrs by sulforhodamine B assay relative to control; assay type: functional; details: read-out: Activity
SK-MEL-28 = test: Growth inhibition of human SK-MEL-28 cells incubated for 48 hrs by sulforhodamine B assay; assay type: functional, cell-based; details: SK-MEL-28, 48 h
UACC-257 = test: Growth inhibition of human UACC257 cells assessed as cell growth at 1 uM incubated for 48 hrs by sulforhodamine B assay relative to control; assay type: functional; details: UACC-257, 48 h, read-out: Activity
NCI-H322M [8] = test: Growth inhibition of human NCI-H322M cells assessed as cell growth at 100 uM incubated for 48 hrs by sulforhodamine B assay relative to control; assay type: functional; details: read-out: Activity
IGROV-1 [9] = test: Growth inhibition of human IGROV1 cells assessed as cell growth at 0.01 uM incubated for 48 hrs by sulforhodamine B assay relative to control; assay type: functional; details: IGROV-1, 48 h, read-out: Activity
RPMI-8226 = test: Growth inhibition of human RPMI8226 cells assessed as cell growth at 0.01 uM incubated for 48 hrs by sulforhodamine B assay relative to control; assay type: functional; details: RPMI-8226, 48 h, read-out: Activity
[10] = read-out: LC50 (the source's name)
[11] = read-out: pLC50 (the source's name) (converted)

## COc1cc(Cl)cc(-c2nn(-c3cccc(NC(=O)c4ccc(N5CCOCC5)c(C(F)(F)F)c4)c3)cc2-c2ccncc2)c1
U-251
  IC50: 5.03 µM
U-251; read-out: GI50
  GI50: 5.03 µM
U-251; [10]
  CC50: > 100 µM
U-251; read-out: TGI
  TGI: > 100 µM
U-251; read-out: pGI50 (converted)
  GI50: 5.01 µM
U-251; [11]
  CC50: > 100 µM
U-251; read-out: pTGI (converted)
  TGI: > 100 µM
CAKI-1 [1]
  growth at 1 µM: 94%
IGROV-1 [2]; read-out: GI50
  GI50: > 100 µM
IGROV-1 [2]; [10]
  CC50: > 100 µM
IGROV-1 [2]; read-out: TGI
  TGI: > 100 µM
IGROV-1 [2]; read-out: pGI50 (converted)
  GI50: > 100 µM
IGROV-1 [2]; [11]
  CC50: > 100 µM
IGROV-1 [2]; read-out: pTGI (converted)
  TGI: > 100 µM
OVCAR-8
  growth at 100 µM: 32%
LOX IMVI [3]
  growth at 1 µM: 95%
SR; read-out: GI50
  GI50: 3.06 µM
SR; [10]
  CC50: > 100 µM
SR; read-out: TGI
  TGI: > 100 µM
SR; read-out: pGI50 (converted)
  GI50: 3.09 µM
SR; [11]
  CC50: > 100 µM
SR; read-out: pTGI (converted)
  TGI: > 100 µM
786-0
  growth at 0.01 µM: 96%
CAKI-1 [4]
  growth at 100 µM: 14%
NCI-H322M [5]; read-out: GI50
  GI50: 7.37 µM
NCI-H322M [5]; [10]
  CC50: > 100 µM
NCI-H322M [5]; read-out: TGI
  TGI: > 100 µM
NCI-H322M [5]; read-out: pGI50 (converted)
  GI50: 74.1 µM
NCI-H322M [5]; [11]
  CC50: > 100 µM
NCI-H322M [5]; read-out: pTGI (converted)
  TGI: > 100 µM
SN12C
  growth at 0.1 µM: 95%
SK-MEL-5
  growth at 1 µM: 50%
NCI-H322M [6]
  growth at 0.01 µM: 97%
SW-620
  growth at 0.01 µM: 96%
A498
  growth at 1 µM: 55%
SNB-75; read-out: GI50
  GI50: 2 µM
SNB-75; [10]
  CC50: > 100 µM
SNB-75; read-out: TGI
  TGI: > 100 µM
SNB-75; read-out: pGI50 (converted)
  GI50: 2.63 µM
SNB-75; [11]
  CC50: > 100 µM
SNB-75; read-out: pTGI (converted)
  TGI: > 100 µM
Hs-578T
  growth at 0.1 µM: 92%
MDA-MB-435
  growth at 0.1 µM: 98%
LOX IMVI [7]; read-out: GI50
  GI50: 1.58 µM
LOX IMVI [7]; [10]
  CC50: > 100 µM
LOX IMVI [7]; read-out: TGI
  TGI: > 100 µM
LOX IMVI [7]; read-out: pGI50 (converted)
  GI50: 15.8 µM
LOX IMVI [7]; [11]
  CC50: > 100 µM
LOX IMVI [7]; read-out: pTGI (converted)
  TGI: > 100 µM
MOLT-4
  growth at 1 µM: 77%
OVCAR-5
  growth at 0.01 µM: 94%
Malme-3M; read-out: GI50
  GI50: 2.53 µM
Malme-3M; [10]
  CC50: > 100 µM
Malme-3M; read-out: TGI
  TGI: > 100 µM
Malme-3M; read-out: pGI50 (converted)
  GI50: 28.2 µM
Malme-3M; [11]
  CC50: > 100 µM
Malme-3M; read-out: pTGI (converted)
  TGI: > 100 µM
HT-29
  growth at 1 µM: 93%
M14
  growth at 100 µM: 5%
T47D
  growth at 0.01 µM: 94%
SK-MEL-28; read-out: GI50
  GI50: 1.48 µM
SK-MEL-28; [10]
  CC50: > 100 µM
SK-MEL-28; read-out: TGI
  TGI: > 100 µM
SK-MEL-28; read-out: pGI50 (converted)
  GI50: 14.8 µM
SK-MEL-28; [11]
  CC50: > 100 µM
SK-MEL-28; read-out: pTGI (converted)
  TGI: > 100 µM
UACC-257
  growth at 1 µM: 98%
NCI-H322M [8]
  growth at 100 µM: 48%
IGROV-1 [9]
  growth at 0.01 µM: 103%
RPMI-8226
  growth at 0.01 µM: 99%
